The record followed here is ChEMBL document CHEMBL1629567, “Pharmacodynamics of cidofovir for vaccinia virus infection in an in vitro hollow-fiber infection model system” (Antimicrob Agents Chemother, 2009).

In experiment [1] the test system is Vaccinia virus. Nature of the experiment: Antiviral activity against Vaccinia virus WR harboring HIV gag gene infected in HeLaS3 cells at 3 uM as continuous infusion in hollow-fiber infection model after 72 hrs by ELISA. The experiment is classed as functional, organism-based. The settings on record: Orthopoxvirus vaccinia, HeLa S3.
Experiment [2] deals with Vaccinia virus. Kind of experiment: Antiviral activity against Vaccinia virus WR harboring HIV gag gene infected in HeLaS3 cells compound administered as bolus infusion equivalent to 100 uM continuous infusion in hollow-fiber infection model after 72 hrs by ELISA. The experiment is classed as functional, Orthopoxvirus vaccinia, HeLa S3.
Experiment [3] concerns Vaccinia virus. Kind of experiment: Antiviral activity against Vaccinia virus WR harboring HIV gag gene infected in HeLaS3 cells at 30 uM administered as intermittent infusion over 1 hr measured in hollow-fiber infection model after 72 hrs by ELISA. The note with it: Orthopoxvirus vaccinia, HeLa S3. The experiment is classed as functional, organism-based.
Experiment [4] deals with Vaccinia virus. Nature of the experiment: Antiviral activity against Vaccinia virus WR harboring HIV gag gene infected in HeLaS3 cells at 3 uM administered as intermittent infusion over 1 hr measured after 72 hrs in hollow-fiber infection model by ELISA. The experiment is classed as functional, organism-based. The note with it: Orthopoxvirus vaccinia, HeLa S3.
Experiment [5] deals with Vaccinia virus. Kind of experiment: Antiviral activity against Vaccinia virus WR harboring the HIV gag gene infected in HeLaS3 cells after 3 to 5 days by plaque assay. The experiment is classed as functional, organism-based. The note with it: Orthopoxvirus vaccinia, HeLa S3.
For experiment [6], the system named is Vaccinia virus. Kind of experiment: Antiviral activity against Vaccinia virus WR harboring the HIV gag gene infected in HeLaS3 cells assessed as inhibition of viral replication in hollow-fiber infection model by plaque assay. The experiment is classed as functional, organism-based. The settings on record: Orthopoxvirus vaccinia, HeLa S3.
For experiment [7], the system named is Vaccinia virus. Nature of the experiment: Antiviral activity against Vaccinia virus WR harboring HIV gag gene infected in HeLaS3 cells at 100 uM administered as intermittent infusion over 1 hr measured in hollow-fiber infection model after 72 hrs by ELISA. The experiment is classed as functional, organism-based. The settings on record: Orthopoxvirus vaccinia, HeLa S3.

Experiment [8] has as its system Vaccinia virus. Kind of experiment: Antiviral activity against Vaccinia virus WR harboring HIV gag gene infected in HeLaS3 cells at 30 uM as continuous infusion in hollow-fiber infection model after 72 hrs by ELISA. The experiment is classed as functional, organism-based. The settings on record: Orthopoxvirus vaccinia, HeLa S3.
Experiment [9] has as its system Vaccinia virus. Nature of the experiment: Antiviral activity against Vaccinia virus WR harboring HIV gag gene infected in HeLaS3 cells at 100 uM as continuous infusion in hollow-fiber infection model after 72 hrs by ELISA. The experiment is classed as functional, organism-based. The note with it: Orthopoxvirus vaccinia, HeLa S3.
For experiment [10], the system named is Vaccinia virus. Kind of experiment: Antiviral activity against Vaccinia virus WR harboring the HIV gag gene infected in HeLaS3 cells assessed as inhibition of viral replication in hollow-fiber infection model at >= 50 uM as continuous infusion by plaque assay. The experiment is classed as functional, organism-based. The settings on record: Orthopoxvirus vaccinia, HeLa S3.

Each structure is given as a SMILES string. Calls of active or inactive are those of the source. No cut-off for these calls is given here.

As to `Nc1ccn(C[C@@H](CO)OCP(=O)(O)O)c(=O)n1.O.O` [CIDOFOVIR], the result in [1], in experiment [3], in [4], in experiment [7], in [8] and in experiment [9] was inactive. The Activity in experiment [2] was 81%. Besides, the EC50 in [5] amounted to 30.9 µM. Besides, in experiment [6], the IC50 is 38 µM. In experiment [10], the inhibition entry was “Active”.
